Target: human recombinant PAK1-KD protein (Homo sapiens, UniProt Q13153)
Experiment: PAK1-KD (Kinase Domain) IC50 Zlyte Assay (FRET peptide substrate phosphorylation)
Settings: Z'-LYTE, Biological Example 1
Source text: PAK1-KD (Kinase Domain) IC50 Zlyte Assay Protocol
Activity of human recombinant PAK1-KD protein may be assessed in vitro by assay of the phosphorylation of a FRET peptide substrate. Catalytically active human recombinant PAK1-KD protein is obtained by purification from Tini cells infected with a human PAK1-KD recombinant baculovirus expression vector.
The activity/inhibition of PAK1-KD was estimated by measuring the phosphorylation of a FRET peptide substrate (Ser/Thr19) labeled with Coumarin and Fluorescein using Z′-LYTE™ assay (Invitrogen). The peptide substrate is a consensus sequence ([sequence]) based on various PAK substrates reported in the scientific literature. […] Incubations were carried out at 22° C. in black polypropylene 384-well plates (Corning Costar).

Sequence of human recombinant PAK1-KD protein (Q13153 270-521 limits assumed): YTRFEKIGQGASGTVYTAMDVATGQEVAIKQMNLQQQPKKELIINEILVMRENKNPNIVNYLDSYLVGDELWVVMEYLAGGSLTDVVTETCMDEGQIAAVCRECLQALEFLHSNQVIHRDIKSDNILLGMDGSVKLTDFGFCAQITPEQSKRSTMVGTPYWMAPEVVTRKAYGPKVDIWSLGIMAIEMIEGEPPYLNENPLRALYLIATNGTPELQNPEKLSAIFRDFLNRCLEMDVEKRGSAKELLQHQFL

SMILES | Ki [nM]
CNc1ncc2cc(-c3ccc(-c4cncc(C)n4)cc3Cl)c(=O)n(C3CCS(=N)(=O)CC3)c2n1 (centres unmarked) [Example I-181, 6-[2-chloro-4-(6-methylpyrazin-2-yl)phenyl]-8-(1-imino-1-oxo-thian-4-yl)-2-(methylamino)pyrido[2,3-d]pyrimidin-7-one] | 110
CCNc1ncc2cc(-c3ccc(-c4cccc(C)n4)cc3C)c(=O)n(C3COC4(CCNC4)C3)c2n1 (centres unmarked) [Example I-122, 2-(Ethylamino)-6-[2-methyl-4-(6-methyl-2-pyridyl)phenyl]-8-(1-oxa-7-azaspiro[4.4]nonan-3-yl)pyrido[2,3-d]pyrimidin-7-one] | 4.5
CNc1ncc2cc(-c3ccc(-c4cncc(C)n4)cc3Cl)c(=O)n(CCCCCN)c2n1 [Example I-138, 8-(5-aminopentyl)-6-[2-chloro-4-(6-methylpyrazin-2-yl)phenyl]-2-(methylamino)pyrido[2,3-d]pyrimidin-7-one] | 9.6
CNc1ncc2cc(-c3ccc(-c4cccc(CO)n4)cc3Cl)c(=O)n(C[C@@H]3CNCCO3)c2n1 [Example I-195, 6-[2-Chloro-4-[6-(hydroxymethyl)-2-pyridyl]phenyl]-2-(methylamino)-8-[[(2S)-morpholin-2-yl]methyl]pyrido[2,3-d]pyrimidin-7-one] | 35.4
CNc1ncc2cc(-c3ccc(-c4cncc(C)n4)cc3Cl)c(=O)n(CC(=O)N(C)C)c2n1 [Example I-86, 2-[6-[2-Chloro-4-(6-methylpyrazin-2-yl)phenyl]-2-(methylamino)-7-oxo-pyrido[2,3-d]pyrimidin-8-yl]-N,N-dimethyl-acetamide] | 123
CCNc1ncc2cc(-c3ccc(-c4cncc(C)n4)cc3Cl)c(=O)n(CC3(O)CCNCC3)c2n1 [Example I-54, 6-(2-Chloro-4-(6-methylpyrazin-2-yl)phenyl)-2-(ethylamino)-8-((4-hydroxypiperidin-4-yl)methyl)pyrido[2,3-d]pyrimidin-7(8H)-one] | 107
Cc1cccc(-c2ccc(-c3cc4cnc(NC5COC5)nc4n(CCCCO)c3=O)c(C)c2)n1 [Example I-81, 8-(4-Hydroxybutyl)-6-[2-methyl-4-(6-methyl-2-pyridyl)phenyl]-2-(oxetan-3-ylamino)pyrido[2,3-d]pyrimidin-7-one] | 6.5
CNc1ncc2cc(-c3ccc(-c4cncc(C)n4)cc3Cl)c(=O)n(CCCCN)c2n1 [Compound I-42, 8-(4-aminobutyl)-6-[2-chloro-4-(6-methylpyrazin-2-yl)phenyl]-2-(methylamino)pyrido[2,3-d]pyrimidin-7-one] | 23.2
CNc1ncc2cc(-c3ccc(-c4cccc(C)n4)cc3Cl)c(=O)n(C[C@H]3[C@@H]4CN(C)C[C@@H]43)c2n1 [Example I-176, 6-[2-chloro-4-(6-methyl-2-pyridyl)phenyl]-2-(methylamino)-8-[[(1R,5S)-3-methyl-3-azabicyclo[3.1.0]hexan-6-yl]methyl]pyrido[2,3-d]pyrimidin-7-one] | 11
CCNc1ncc2cc(-c3ccc(-c4cccc(C)n4)cc3Cl)c(=O)n(CC[C@H](O)CO)c2n1 [Example I-123, 6-[2-Chloro-4-(6-methyl-2-pyridyl)phenyl]-8-[(3S)-3,4-dihydroxybutyl]-2-(ethylamino)pyrido[2,3-d]pyrimidin-7-one] | 7.08
Cc1cncc(-c2ccc(-c3cc4cnc(NC5COC5)nc4n(CCCC(N)=O)c3=O)c(Cl)c2)n1 [Example I-55, 4-[6-[2-Chloro-4-(6-methylpyrazin-2-yl)phenyl]-2-(oxetan-3-ylamino)-7-oxo-pyrido[2,3-d]pyrimidin-8-yl]butanamide] | 29.8
CNc1ncc2cc(-c3ccc(-c4cccc(C)n4)cc3Cl)c(=O)n(CC[C@H]3OC[C@@H](N)CO3)c2n1 [Example I-134, 8-[2-(5-amino-1,3-dioxan-2-yl)ethyl]-6-[2-chloro-4-(6-methyl-2-pyridyl)phenyl]-2-(methylamino)pyrido[2,3-d]pyrimidin-7-one] | 3.45
Cc1cccc(-c2ccc(-c3cc4cnc(NC5COC5)nc4n(C[C@@H]4CNCCO4)c3=O)c(Cl)c2)n1 [Example I-188, 6-[2-chloro-4-(6-methyl-2-pyridyl)phenyl]-8-[[(2S)-morpholin-2-yl]methyl]-2-(oxetan-3-ylamino)pyrido[2,3-d]pyrimidin-7-one] | 8.1
CCNc1ncc2cc(-c3ccc(-c4cncc(C)n4)cc3Cl)c(=O)n(CC3(O)CCN(C)CC3)c2n1 [Example I-105, 6-[2-Chloro-4-(6-methylpyrazin-2-yl)phenyl]-2-(ethylamino)-8-[(4-hydroxy-1-methyl-4-piperidyl)methyl]pyrido[2,3-d]pyrimidin-7-one] | 114
Cc1cccc(-c2ccc(-c3cc4cnc(NC5COC5)nc4n(CC(=O)N4CCNCC4)c3=O)c(C)c2)n1 [Example I-106, 6-[2-Methyl-4-(6-methyl-2-pyridyl)phenyl]-2-(oxetan-3-ylamino)-8-(2-oxo-2-piperazin-1-yl-ethyl)pyrido[2,3-d]pyrimidin-7-one] | 54.5
Cc1cncc(-c2ccc(-c3cc4cnc(N)nc4n(CCCCCN)c3=O)c(Cl)c2)n1 [Example I-88, 2-Amino-8-(5-aminopentyl)-6-[2-chloro-4-(6-methylpyrazin-2-yl)phenyl]pyrido[2,3-d]pyrimidin-7-one] | 313

SMILES | Ki [nM]
CCNc1ncc2cc(-c3ccc(-c4cncc(C)n4)cc3Cl)c(=O)n(CCN3CCN(C)CC3)c2n1 [Example I-27, 6-(2-Chloro-4-(6-methylpyrazin-2-yl)phenyl)-2-(ethylamino)-8-(2-(4-methylpiperazin-1-yl)ethyl)pyrido[2,3-d]pyrimidin-7(8H)-one] | 47.6
Cc1cncc(-c2ccc(-c3cc4cnc(NC(C)C)nc4n(CCC4CNC(=O)C4)c3=O)c(Cl)c2)n1 (single isomer, unassigned) [Example I-99, 6-[2-Chloro-4-(6-methylpyrazin-2-yl)phenyl]-2-(isopropylamino)-8-[2-(5-oxopyrrolidin-3-yl)ethyl]pyrido[2,3-d]pyrimidin-7-one] | 19.1
CCNc1ncc2cc(-c3ccc(-c4cncc(C)n4)cc3Cl)c(=O)n(CCCCC(N)=O)c2n1 [Example I-49, 5-[6-[2-Chloro-4-(6-methylpyrazin-2-yl)phenyl]-2-(ethylamino)-7-oxo-pyrido[2,3-d]pyrimidin-8-yl]pentanamide] | 75.3
CNc1ncc2cc(-c3ccc(-c4cccc(C)n4)cc3Cl)c(=O)n(CC3CNCCS3(=O)=O)c2n1 (single isomer, unassigned) [I-197 Isomer B, 6-[2-chloro-4-(6-methyl-2-pyridyl)phenyl]-8-[(1,1-dioxo-1 4-thiazinan-2-yl)methyl]-2-(methylamino)pyrido[2,3-d]pyrimidin-7-one] | 31.6
CNc1ncc2cc(-c3ccc(-c4csc(C)n4)cc3Cl)c(=O)n(CCCN)c2n1 [Example I-140, 8-(3-aminopropyl)-6-[2-chloro-4-(2-methylthiazol-4-yl)phenyl]-2-(methylamino)pyrido[2,3-d]pyrimidin-7-one] | 8.06
Cc1cccc(-c2ccc(-c3cc4cnc(NC(C)C)nc4n(CC(=O)N4CCNCC4)c3=O)c(C)c2)n1 [Example I-78, 2-(Isopropylamino)-6-(2-methyl-4-(6-methylpyridin-2-yl)phenyl)-8-(2-oxo-2-(piperazin-1-yl)ethyl)pyrido[2,3-d]pyrimidin-7(8H)-one] | 16
CCNc1ncc2cc(-c3ccc(-c4cncc(C)n4)cc3Cl)c(=O)n(CC3C4CN(C)CC43)c2n1 (centres unmarked) [Example I-128, 6-[2-chloro-4-(6-methylpyrazin-2-yl)phenyl]-2-(ethylamino)-8-[(3-methyl-3-azabicyclo[3.1.0]hexan-6-yl)methyl]pyrido[2,3-d]pyrimidin-7-one] | 11.8
CNc1ncc2cc(-c3ccc(-c4cccc(C)n4)cc3Cl)c(=O)n(CS(=O)(=O)N3CCNCC3)c2n1 [Example I-162, 6-[2-chloro-4-(6-methyl-2-pyridyl)phenyl]-2-(methylamino)-8-(piperazin-1-ylsulfonylmethyl)pyrido[2,3-d]pyrimidin-7-one] | 14.7
CCNc1ncc2cc(-c3ccc(-c4cccc(C)n4)cc3C)c(=O)n(CCCC(=O)NC)c2n1 [Example I-74, 4-[2-(Ethylamino)-6-[2-methyl-4-(6-methyl-2-pyridyl)phenyl]-7-oxo-pyrido[2,3-d]pyrimidin-8-yl]-N-methyl-butanamide] | 15.5
CNc1ncc2cc(-c3ccc(-c4cccc(C)n4)cc3C)c(=O)n(CCS(=O)(=O)CCN)c2n1 [Example I-174, 8-[2-(2-aminoethylsulfonyl)ethyl]-2-(methylamino)-6-[2-methyl-4-(6-methyl-2-pyridyl)phenyl]pyrido[2,3-d]pyrimidin-7-one] | 7.2
CCc1cc(-c2cccc(C)n2)ccc1-c1cc2cnc(NC3COC3)nc2n(CC[C@H]2OC[C@H](N)CO2)c1=O [Example I-198, 8-[2-(5-Amino-1,3-dioxan-2-yl)ethyl]-6-[2-ethyl-4-(6-methyl-2-pyridyl)phenyl]-2-(oxetan-3-ylamino)pyrido[2,3-d]pyrimidin-7-one] | 1.2
CCNc1ncc2cc(-c3ccc(-c4cncc(C)n4)cc3Cl)c(=O)n(CCC3CCCN3)c2n1 (single isomer, unassigned) [Example I-20] | 20.4
CCNc1ncc2cc(-c3ccc(-c4cncc(C)n4)cc3Cl)c(=O)n(CC(C)OC3CNC3)c2n1 (single isomer, unassigned) [Example I-92] | 47.6
CCNc1ncc2cc(-c3ccc(-c4cncc(C)n4)cc3Cl)c(=O)n(C3COC4(CCNCC4)C3)c2n1 (centres unmarked) [Example I-59, 6-(2-Chloro-4-(6-methylpyrazin-2-yl)phenyl)-2-(ethylamino)-8-(1-oxa-8-azaspiro[4.5]decan-3-yl)pyrido[2,3-d]pyrimidin-7(8H)-one] | 24.4
CCNc1ncc2cc(-c3ccc(-c4cccc(C)n4)cc3Cl)c(=O)n(CCOC3CNC3)c2n1 [Example I-30, 8-[2-(azetidin-3-yloxy)ethyl]-6-[2-chloro-4-(6-methyl-2-pyridyl)phenyl]-2-(ethylamino)pyrido[2,3-d]pyrimidin-7-one] | 9.9
Cc1cccc(-c2ccc(-c3cc4cnc(NCC(F)F)nc4n(CCC4CNCCO4)c3=O)c(C)c2)n1 (racemic) [Example I-126, 2-(2,2-Difluoroethylamino)-6-[2-methyl-4-(6-methyl-2-pyridyl)phenyl]-8-(2-morpholin-2-ylethyl)pyrido[2,3-d]pyrimidin-7-one] | 2.5

Source: patent US20150031674A1, “SERINE/THREONINE KINASE INHIBITORS” (GENENTECH, INC., priority 2013, published 2015)
